Data on 15 compounds can be found in ChEMBL document CHEMBL1201862, “PubChem BioAssay data set” (2004).

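Step 1: Grow cells in 96-well plates. Step 2: Expose to compound for 48 hours at 5 concentrations. Step 3: Interpolate endpoints linearly; if unreached, use highest concentration. At the GI50, growth is halved.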 Active and inactive are the calls of the source. Rule as the data show it: active = GI50 up to about 1.1 µM and inactive = higher.

Some test systems named below: SK-MEL-5; RPMI-8226; LXFL 529; HCT-15; MOLT-4; DLD-1; KM-20L2; SNB-78; XF498; U-251; A498; NCI-H460; ACHN; NCI-H226.
What all share (assay): NCI tumour cell line growth inhibition, 48 h

Turning to `CC(C)=CC(=O)N1CCN(C(=O)C=C(C)C)CC1`, the GI50 was > 100 µM (inactive) with SK-MEL-5; > 100 µM (inactive) in the experiment on RPMI-8226; > 100 µM (inactive) in the experiment on LXFL 529; more than 100 µM with HCT-15; > 100 µM (inactive) in the experiment on MOLT-4; > 100 µM (inactive) in the experiment with DLD-1. Further, the GI50 in the experiment on KM-20L2, in the experiment with SNB-78, in the experiment with XF498, with U-251, in the experiment with A498 and with NCI-H460 was > 100 µM (inactive) throughout. Besides, the GI50 in the experiment on ACHN was > 100 µM (inactive).

As to `CC(=O)OC1COC(N2CCc3ccccc32)C(OC(C)=O)C1OC(C)=O` (centres undefined), the GI50 with SK-MEL-5 is > 100 µM (inactive); with NCI-H226, > 100 µM (inactive); in the experiment with RPMI-8226, > 100 µM (inactive); with LXFL 529, > 100 µM (inactive); in the experiment on HCT-15, more than 100 µM; in the experiment on MOLT-4, > 100 µM (inactive). Besides, the GI50 is > 100 µM (inactive) with DLD-1; > 100 µM (inactive) with KM-20L2; > 76.4 µM (inactive) with SNB-78; > 100 µM (inactive) with XF498; > 100 µM (inactive) in the experiment with U-251; > 100 µM (inactive) in the experiment with A498. The GI50 in the experiment on NCI-H460 and in the experiment on ACHN was > 100 µM (inactive) in each case.

With `N#C/C(=C\c1cccc(O)c1)C(N)=O`, the GI50 was > 100 µM (inactive) in the experiment with SK-MEL-5; > 100 µM (inactive) with NCI-H226; > 100 µM (inactive) in the experiment with RPMI-8226; > 100 µM (inactive) in the experiment on LXFL 529; more than 100 µM in the experiment with HCT-15; > 100 µM (inactive) in the experiment with MOLT-4. Moreover, the GI50 in the experiment on DLD-1, in the experiment with KM-20L2, in the experiment with SNB-78, in the experiment with XF498, in the experiment on U-251 and in the experiment on A498 was > 100 µM (inactive) in each case. The GI50 with NCI-H460 and with ACHN was > 100 µM (inactive) each time.

With `COC(=O)C1=Cc2c(OC)cc(OC)c(OC)c2[C@H](c2cc(OC)c(OC)cc2OC)C1C(=O)OC` (some centres undefined), the GI50 with SK-MEL-5 is > 100 µM (inactive); in the experiment on NCI-H226 it was > 100 µM (inactive); in the experiment on RPMI-8226 it was > 100 µM (inactive); with LXFL 529, > 100 µM (inactive); with HCT-15, more than 100 µM; in the experiment with MOLT-4 it was > 100 µM (inactive). Further, the GI50 is > 100 µM (inactive) in the experiment with DLD-1; > 100 µM (inactive) with KM-20L2; 20.7 µM (inactive) in the experiment with SNB-78; > 100 µM (inactive) in the experiment on XF498; > 100 µM (inactive) in the experiment on U-251; > 100 µM (inactive) in the experiment on A498. The GI50 in the experiment with NCI-H460 and in the experiment on ACHN was > 100 µM (inactive) throughout.

For `CC(=O)O[C@H]1CCC2[C@@H]3CCC4=C(O)C(=O)C(C#N)C[C@]4(C)C3CC[C@@]21C` (some centres undefined), the GI50 is 26.1 µM (inactive) in the experiment with SK-MEL-5; 24.9 µM (inactive) in the experiment with NCI-H226; 12.4 µM (inactive) in the experiment on RPMI-8226; 35 µM (inactive) with LXFL 529; 30 µM with HCT-15; 30.5 µM (inactive) with MOLT-4. In addition, the GI50 in the experiment on DLD-1 was 25.4 µM (inactive); in the experiment on KM-20L2, 81.3 µM (inactive); in the experiment on SNB-78, 47.5 µM (inactive); in the experiment on XF498, 22 µM (inactive); in the experiment on U-251, 47.8 µM (inactive); in the experiment with A498, 0.361 µM (active). For the same compound, the GI50 with NCI-H460 was 31.6 µM (inactive); in the experiment with ACHN, 26.7 µM (inactive).

As to `Cc1c(CCO)c(O)n2c(nc3ccccc32)c1C#N`, the GI50 is 21.8 µM (inactive) with SK-MEL-5; 98.4 µM (inactive) in the experiment on NCI-H226; 26.7 µM (inactive) with RPMI-8226; 36.6 µM (inactive) in the experiment with LXFL 529; 45.7 µM in the experiment on HCT-15; > 100 µM (inactive) in the experiment on DLD-1. The GI50 is 66.5 µM (inactive) with KM-20L2; 61 µM (inactive) in the experiment with SNB-78; > 100 µM (inactive) in the experiment on XF498; 46.1 µM (inactive) with U-251; > 100 µM (inactive) with A498; 26.7 µM (inactive) in the experiment on NCI-H460. Further, the GI50 with ACHN is > 100 µM (inactive).

Consider `O=C(c1ccccc1)c1cccc(C(=O)c2ccccc2)c1`, for which the GI50 in the experiment on SK-MEL-5 is 78.9 µM (inactive); in the experiment with NCI-H226, 34.3 µM (inactive); in the experiment with RPMI-8226, > 100 µM (inactive); with LXFL 529, 74.1 µM (inactive); with MOLT-4 it was 67.9 µM (inactive); in the experiment with DLD-1 it was > 100 µM (inactive). The GI50 with SNB-78, in the experiment on XF498, in the experiment on U-251, with A498, in the experiment with NCI-H460 and in the experiment on ACHN was > 100 µM (inactive) in each case.

On to `CC1=C(C(=O)O)N2C(=O)[C@@H](NC(=O)C(c3ccc(O)cc3)N3CSC(=S)N(C(C)C)C3)C2SC1` (some centres undefined), for which the GI50 with SK-MEL-5 is > 100 µM (inactive); in the experiment with RPMI-8226, > 100 µM (inactive); with LXFL 529, > 100 µM (inactive); in the experiment with HCT-15, more than 100 µM; in the experiment on MOLT-4 it was > 100 µM (inactive); in the experiment with DLD-1 it was > 100 µM (inactive). The GI50 in the experiment with KM-20L2, in the experiment on SNB-78, in the experiment on XF498, with U-251, in the experiment on A498 and in the experiment with NCI-H460 was > 100 µM (inactive) each time. For the same compound, the GI50 in the experiment on ACHN is > 100 µM (inactive).

On to `CCOC(=O)C1(C#N)C(c2ccccc2)CC(O)(c2ccc(Cl)cc2)C(C(=O)c2ccc(Cl)cc2)C1c1ccccc1` (centres undefined), for which the GI50 with SK-MEL-5 is > 100 µM (inactive); in the experiment with NCI-H226, > 100 µM (inactive); in the experiment with RPMI-8226, 76.6 µM (inactive); in the experiment with LXFL 529, 69.5 µM (inactive); in the experiment with HCT-15 it was more than 100 µM; with MOLT-4, 80.4 µM (inactive). Besides, the GI50 in the experiment with DLD-1 is > 100 µM (inactive); in the experiment with KM-20L2 it was > 100 µM (inactive); in the experiment on SNB-78, 82.4 µM (inactive); in the experiment on XF498, 65.9 µM (inactive); in the experiment on U-251, > 10 µM (inactive); in the experiment with NCI-H460, > 100 µM (inactive). In addition, the GI50 in the experiment on ACHN was > 100 µM (inactive).

As for `O=C1C2C3CC(C4C5C=CC(C5)C34)C2C2C3CC(C12)C1C2C=CC(C2)C31` (centres undefined), the GI50 in the experiment on SK-MEL-5 was > 100 µM (inactive); in the experiment with NCI-H226, > 100 µM (inactive); in the experiment on LXFL 529, > 100 µM (inactive); in the experiment with HCT-15, more than 100 µM; in the experiment on MOLT-4, > 100 µM (inactive); with DLD-1 it was > 100 µM (inactive). Also, the GI50 was > 100 µM (inactive) with KM-20L2; > 100 µM (inactive) in the experiment on SNB-78; > 100 µM (inactive) with XF498; > 100 µM (inactive) in the experiment with U-251; > 100 µM (inactive) in the experiment with A498; 26.8 µM (inactive) with NCI-H460. In addition, the GI50 in the experiment on ACHN is > 100 µM (inactive).

As to `CCOC(=O)CCc1c(C)c2c(OC)cc(OC)cc2oc1=O`, the GI50 with NCI-H226 is 25.5 µM (inactive); in the experiment on LXFL 529, 62.5 µM (inactive); with DLD-1, 91.6 µM (inactive); with KM-20L2, > 100 µM (inactive); with SNB-78 it was > 100 µM (inactive); with XF498, 35.2 µM (inactive). Also, the GI50 is > 100 µM (inactive) in the experiment on U-251, > 100 µM (inactive) in the experiment on NCI-H460 and 42.4 µM (inactive) in the experiment with ACHN.

For `O=C(CC1C(=O)Nc2ccccc2[S+]1[O-])Nc1ccccc1` (centres undefined), the GI50 in the experiment on SK-MEL-5 is > 100 µM (inactive); in the experiment with NCI-H226 it was > 100 µM (inactive); with LXFL 529, > 100 µM (inactive); in the experiment with HCT-15, more than 100 µM; in the experiment with MOLT-4 it was > 100 µM (inactive); in the experiment on DLD-1 it was > 100 µM (inactive). For the same compound, the GI50 with KM-20L2, with SNB-78, in the experiment on XF498, in the experiment with U-251, with A498 and with NCI-H460 was > 100 µM (inactive) each time. Also, in the experiment with ACHN, the GI50 was 59.7 µM (inactive).

In the case of `O=[N+]([O-])C1C2C=CC(C2)[C@H]1c1ccc(Cl)cc1Cl` (some centres undefined), the GI50 in the experiment with SK-MEL-5 is 4.36 µM (inactive); in the experiment with NCI-H226 it was 49 µM (inactive); with RPMI-8226, 24.9 µM (inactive); with LXFL 529, 39.4 µM (inactive); with HCT-15, 43.3 µM; in the experiment with MOLT-4, 26.7 µM (inactive). Moreover, the GI50 in the experiment with DLD-1 was 20.3 µM (inactive); in the experiment with SNB-78, 48.4 µM (inactive); in the experiment on XF498, 43.7 µM (inactive); in the experiment with U-251, 35.3 µM (inactive); with A498, 55 µM (inactive); with NCI-H460, 36.2 µM (inactive). The GI50 with ACHN is 33 µM (inactive).

As for `CN1C(=S)CSc2ccccc21`, the GI50 with SK-MEL-5 is 97.1 µM (inactive); with NCI-H226 it was 89.1 µM (inactive); with RPMI-8226, 89.7 µM (inactive); in the experiment with LXFL 529 it was > 100 µM (inactive); in the experiment with HCT-15, more than 100 µM; with MOLT-4 it was > 100 µM (inactive). For the same compound, the GI50 was > 100 µM (inactive) with DLD-1; > 100 µM (inactive) in the experiment on KM-20L2; > 100 µM (inactive) in the experiment on SNB-78; 32.4 µM (inactive) in the experiment with XF498; > 100 µM (inactive) in the experiment on U-251; > 100 µM (inactive) in the experiment with NCI-H460. For the same compound, the GI50 in the experiment on ACHN was > 100 µM (inactive).

Take `O=C1C(Cl)C(c2ccccc2Cl)N1n1cnc2ccccc2c1=O` (centres undefined): the GI50 with SK-MEL-5 is > 100 µM (inactive); in the experiment with NCI-H226, 8.32 µM (inactive); in the experiment with RPMI-8226, 35 µM (inactive); in the experiment on LXFL 529, 49.1 µM (inactive); with HCT-15 it was 72.6 µM; in the experiment on MOLT-4 it was 68.5 µM (inactive). For the same compound, the GI50 in the experiment with DLD-1 was 61.7 µM (inactive); in the experiment with KM-20L2, > 100 µM (inactive); with SNB-78, > 100 µM (inactive); with XF498 it was 67.6 µM (inactive); in the experiment on U-251, 48.4 µM (inactive); in the experiment with NCI-H460, > 100 µM (inactive). Also, the GI50 with ACHN was 76.2 µM (inactive).
